Data published in patent US20230404080A1, “A METHOD OF CONTROLLING HERBICIDE RESISTANT WEEDS” (UPL Corporation Limited, priority 2020, published 2023).

Tested on: Spermacoce verticillate
Assay: Example 1 trial: herbicidal combinations on Spermacoce verticillate resistant to Group 4 and Group 9 herbicides
Type: in vivo
Conditions: for % weed control at 14 DA-B: 14 days after sequential application B, B applied 15 days after A, scale 0 (no damage) to 100 (complete destruction) vs untreated control, rates per Table 1; for control of S. verticillate weeds (in words): Example 1, sequential application used after glyphosate+triclopyr at 15 DA-A
Experimental: Trials were carried out for evaluating the effect of herbicidal combinations on target weeds of Spermacoce verticillate resistant to herbicides belonging to Group 4 and Group 9. The evaluation for the damage on undesired weeds caused by the present compositions was carried out using a scale from 0 to 100%, compared to the untreated control plants. Here, 0 means no damage and 100 means complete destruction of weed. In the following experiments, the herbicidal activity for the herbicidal combinations was assessed till 28 days after treatment (application A).
In this trial, time T was application time, application A was performed first and at 15 days, application B was performed out in treatments with sequential application. The tested herbicides were sourced from the formulations readily available.

Row | Compound | % weed control at 14 DA-B [%] | control of S. verticillate weeds (in words)
1 | O=C(O)COc1nc(Cl)c(Cl)cc1Cl [Triclopyr (A), Triclopyr] | 42.5 | do not efficiently control
2 | O=C(O)CNCP(=O)(O)O [Glyphosate (A), N-(phosphonomethyl)glycine] | 22 | do not efficiently control
